# Source: US20230355622A1, “METHODS OF CHEMOVACCINATION AGAINST PLASMODIUM INFECTIONS” (Merck Sharp & Dohme LLC, priority 2020, published 2023)
# Read-outs that look alike come from different tables or passages of the source.
# What was measured:
# PbmCherryLuci = assay: Prime/boost immunisation of C57BL/6 mice with Example 75A, mosquito bite challenge (FIG. 9); format: in vivo, Plasmodium berghei; details: female C57BL/6, prime/boost, 2 x 500 mg/kg P.O. at 36 and 48 h; 10 mosquito bites at 12 weeks after prime
# Procedure: To investigate if chemoprophylaxis with Example 75A would serve as a chemovaccination as does Example IA, female C57BL/6 mice were immunized using a prime/boost regimen. The first immunisation was with 40,000 PbmCherryLuci salivary gland sporozoites i.v. followed by two doses of Example 75A at 500 mg/kg P.O. (given at 36 and 48 hours post infection). The second immunisation (boost) was six weeks later, this time with 20,000 PbmCherryLuci sporozoites but with Example 75A treatment as for the prime immunisation. Six weeks after the boost immunisation (twelve weeks after the prime immunisation) the immunised mice were challenged with the bites of 10 PbmCherryLuci infected mosquitoes for 15 minutes. Giemsa stained thin blood smears were analysed until day 30 for the presence of parasites in the blood and mice were considered to be protected from infection if no blood parasites were observed within the 30 days post mosquito bite challenge.
# [1] = system: PbmCherryLuci sporozoites; assay: Inhibition of liver to blood transition in C57BL/6 mice (FIG. 8); format: in vivo, Plasmodium berghei
# Procedure: 40,000 PbmCherryLuci sporozoites (or the indicated number of sporozoites) were inoculated i.v. and compounds were administered by oral gavage at indicated time points during liver infection. Liver infection levels and egress of parasites from the liver were measured by bioluminescence signal from the parasites using an In Vivo Imaging System (IVIS, Perkin Elmer) at the peak of liver infection (52 hours post infection, hpi), during liver egress (55 hpi) as well as during the first round of blood infection (65 hpi). Initiation of blood infection was also measured by flow cytometry at 65 hpi using the mCherry reporter to determine the parasitemia of this first round of blood infection. These analyses allowed quantification of the efficacy of drug killing of parasites in the liver (52 hpi), preventing their egress from the liver (55 hpi) or preventing their successful infection of the blood (65 hpi). Mice were monitored by giemsa stained thin blood smears for the presence of parasites in the blood for 30 days post infection. If no blood infection was seen during the subsequent 30 days, mice were declared cured of malaria infection.
# C57BL/6 mice were administered Example 1A or Example 75A as described in the general experimental procedure.
# parasite = assay: Parasite LDH growth assay (Parasite Assay), antiparasite potency; format: cell-based; details: parasite LDH growth assay, ring stage parasites, 72 hours incubation at 37° C., read-out: EC50
# Outline: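 Ring-stage parasites at 0.7% parasitemia and 2% haematocrit, in RPMI-Hepes/bicarbonate with 5% heat-inactivated human serum and 0.5% albumax, were added to compound-containing medium. Cultures grew 72 h at 37 °C in gassed humidified boxes. Plates were then frozen overnight at −80 °C, thawed 4 h, and growth was measured by LDH assay.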
# PMIX [2] = assay: Autocatalytic processing of PMIX to p55; format: cell-based; details: P. falciparum parasite
# Source text: The development of Example 1A as a PMIX/PMX dual inhibitor of the P. falciparum parasite has allowed for the analysis of the function of these aspartic acid proteases. To do this, PMIX was processed to a 55 kDa (p55) protein and this was not inhibited by E64.
# PMIX [3] = assay: Cleavage of PMIX substrates RAP1 and ASP in parasite extracts; format: cell-based, P. falciparum
# Procedure: To confirm that Example 1A was a dual inhibitor of PMIX and PMX function, the ability of this compound to inhibit cleavage of the known PMIX substrate Rhoptry Associated Protein 1 (RAPI) in parasite extracts was tested (Pino et al., 2017). RAP1 is a merozoite rhoptry protein that is localized to the parasitophorous vacuole after invasion and processed by both PMIX and SUB1 (Pino et al., 2017). […] RAP1 was not released into the parasite supernatant because it was deposited in the parasitophorous vacuole during the invasion process (Baldi, D., Andrews, K., Waller, R., Roos, D., Howard, R., Crabb, B. and Cowman, A. (2000)). RAP1 controls rhoptry targeting of RAP2 in the malaria parasite Plasmodium falciparum. Embo Journal 19, 2435-2443.
# PMX = PMX (Plasmodium falciparum, UniProt Q8IAS0); design: endogenous in cells; details: negative control, literature (Salmon et al. 2001); cited from earlier work
# Chain of PMX (Q8IAS0 222-573): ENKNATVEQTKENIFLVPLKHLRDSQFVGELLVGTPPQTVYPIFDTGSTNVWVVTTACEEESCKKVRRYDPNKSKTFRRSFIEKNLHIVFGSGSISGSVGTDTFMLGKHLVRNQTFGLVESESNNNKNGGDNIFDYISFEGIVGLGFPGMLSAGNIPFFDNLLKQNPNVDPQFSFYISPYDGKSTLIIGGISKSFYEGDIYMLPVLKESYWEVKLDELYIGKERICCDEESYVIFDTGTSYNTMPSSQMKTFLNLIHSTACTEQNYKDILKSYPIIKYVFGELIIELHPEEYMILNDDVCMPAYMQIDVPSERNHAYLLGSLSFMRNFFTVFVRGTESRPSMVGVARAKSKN
Structure (SMILES),EC50 (parasite; 72 h) [nM],other results
"CCC1(CC)CC(=O)N([C@H]2c3cc(C(=O)N[C@@H]4c5ccccc5C[C@H]4O)ccc3O[C@@]2(C)COC)C(=N)N1 [Example 75A, (2R,3S)-3-(4,4-diethyl-2-imino-6-oxotetrahydropyrimidin-1(2H)-yl)-N-((1R,2R)-2-hydroxy-2,3-dihydro-1H-inden-1-yl)-2-(methoxymethyl)-2-methyl-2,3-dihydrobenzofuran-5-carboxamide]",0.4,sterile protection from reinfection (PbmCherryLuci): 100%; mice protected ([1]; 300 mg/kg): 8 mice; mice protected ([1]; 500 mg/kg): 10/11; detection of parasites in the blood ([1]; lower doses (below 300 mg/kg)): large delays in the detection of parasites in the blood
"CC[C@]1(C)CC(=O)N([C@H]2c3cc(C(=O)N[C@@H]4c5ccccc5OC(C)(C)[C@H]4O)ccc3OC[C@@H]2COC)C(=N)N1 [Example 277, (3S,4R)-4-[(4R)-4-ethyl-2-imino-4-methyl-6-oxo-hexahydropyrimidin-1-yl]-N-[(3S,4R)-3-hydroxy-2,2-dimethyl-chroman-4-yl]-3-(methoxymethyl)chromane-6-carboxamide]",0.4,–
"CC[C@]1(C)CC(=O)N([C@H]2c3cc(C(=O)N[C@@H]4c5ccccc5OC(C)(C)[C@H]4O)ccc3OCC2(C)OC)C(=N)N1 (stereo partly drawn) [Example 284, 4-[(4R)-4-ethyl-2-imino-4-methyl-6-oxo-hexahydropyrimidin-1-yl]-N-[(3S,4R)-3-hydroxy-2,2-dimethyl-chroman-4-yl]-3-methoxy-3-methyl-chromane-6-carboxamide]",8.5,–
"CCC1(CC)CC(=O)N([C@@H]2CCS(=O)(=O)c3ccc(C(=O)N[C@H]4CC(C)(C)Oc5ccccc54)cc32)C(=N)N1 [Example 289, (4R)-4-(4,4-diethyl-2-imino-6-oxo-hexahydropyrimidin-1-yl)-N-[(4S)-2,2-dimethylchroman-4-yl]-1,1-dioxo-3,4-dihydro-2H-thiochromene-6-carboxamide]",–,EC50 (parasite): 0.6 nM
"CCC1(CC)CC(=O)N([C@H]2c3cc(C(=O)N[C@@H]4c5ccccc5C(F)(F)[C@H]4O)ccc3O[C@@]2(C)COC)C(=N)N1 [Example 290, (2R,3S)-3-(4,4-diethyl-2-imino-6-oxo-hexahydropyrimidin-1-yl)-N-[(1R,2S)-3,3-difluoro-2-hydroxy-indan-1-yl]-2-(methoxymethyl)-2-methyl-3H-benzofuran-5-carboxamide]",0.3,–
"CCC1(CC)CC(=O)N([C@H]2c3cc(C(=O)N[C@H]4c5ccccc5C(F)(F)[C@@H]4O)ccc3O[C@@]2(C)COC)C(=N)N1 [Example 291, (2R,3S)-3-(4,4-diethyl-2-imino-6-oxo-hexahydropyrimidin-1-yl)-N-[(1S,2R)-3,3-difluoro-2-hydroxy-indan-1-yl]-2-(methoxymethyl)-2-methyl-3H-benzofuran-5-carboxamide]",240,–
"CCC1(CC)CC(=O)N([C@@H]2c3cc(C(=O)N[C@@H]4c5ccccc5OC(C)(C)[C@H]4O)ccc3OC[C@@]2(C)OC)C(=N)N1 [Example 295, (3S,4R)-4-(4,4-diethyl-2-imino-6-oxo-hexahydropyrimidin-1-yl)-N-[(3S,4R)-3-hydroxy-2,2-dimethyl-chroman-4-yl]-3-methoxy-3-methyl-chromane-6-carboxamide]",100,–
"CCC1(CC)CC(=O)N([C@H]2c3cc(C(=O)N[C@@H]4c5ccccc5OC(C)(C)[C@H]4O)ccc3OC[C@]2(C)OC)C(=N)N1 [Example 296, (3R,4S)-4-(4,4-diethyl-2-imino-6-oxo-hexahydropyrimidin-1-yl)-N-[(3S,4R)-3-hydroxy-2,2-dimethyl-chroman-4-yl]-3-methoxy-3-methyl-chromane-6-carboxamide]",0.3,–
"CCC1(CC)CC(=O)N([C@H]2c3cc(C(=O)N[C@@H]4c5ccccc5OC(C)(C)[C@H]4O)ccc3OC[C@H]2COC)C(=N)N1 [Example 298, (3R,4R)-4-(4,4-diethyl-2-imino-6-oxotetrahydropyrimidin-1(2H)-yl)-N-((3S,4R)-3-hydroxy-2,2-dimethylchroman-4-yl)-3-(methoxymethyl)chromane-6-carboxamide]",0.5,–
"CCC1(CC)CC(=O)N([C@H]2c3cc(C(=O)N[C@@H]4c5ccccc5OC(C)(C)[C@H]4O)ccc3OC[C@@H]2COC)C(=N)N1 [Example 299, (3S,4R)-4-(4,4-diethyl-2-imino-6-oxo-hexahydropyrimidin-1-yl)-N-[(3S,4R)-3-hydroxy-2,2-dimethyl-chroman-4-yl]-3-(methoxymethyl)chromane-6-carboxamide]",0.8,–
"CC(C)C[C@H](NC(=O)[C@H]1O[C@@H]1C(=O)O)C(=O)NCCCCN=C(N)N [Example E64, reference compound]",–,"PMIX processing to 55 kDa (p55) protein (PMIX [2]): not inhibited; RAP1 processing by PMIX and SUB1 (PMIX [3]; treated parasites/merozoites, processed forms p82 and p69, unprocessed p87): processed normally by PMIX and SUB1; Apical Sushi Protein (ASP) processing by PMIX (PMIX [3]; treated parasites, p47 processed, p87 full-length): processed into a 47 kDa polypeptide (p47); SERA5 processing (PMX): does not affect SERA5 processing"
